# Molecular target: T1, Type-2 angiotensin II receptor (Homo sapiens, UniProt P50052)
# T1 sequence (P50052 whole entry): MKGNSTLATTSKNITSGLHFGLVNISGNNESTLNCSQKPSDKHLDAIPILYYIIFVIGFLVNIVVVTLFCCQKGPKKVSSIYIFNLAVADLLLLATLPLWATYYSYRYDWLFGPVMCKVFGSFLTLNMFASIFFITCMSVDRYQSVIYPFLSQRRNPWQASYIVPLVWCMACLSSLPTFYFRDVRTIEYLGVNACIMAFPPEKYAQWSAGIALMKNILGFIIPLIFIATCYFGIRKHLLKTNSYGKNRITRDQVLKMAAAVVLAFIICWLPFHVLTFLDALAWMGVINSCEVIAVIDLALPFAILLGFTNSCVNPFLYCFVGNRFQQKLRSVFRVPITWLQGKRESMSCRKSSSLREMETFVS
# Assay: Receptor Binding Assay: 120 μL membrane ([…]) was incubated with 15 μL of [125I]-CGP42112A and 15 μL of compound at RT for 1.5 hrs. The binding reaction was stopped by rapid filtration through Unifilter GF/C plates (presoaked in 0.3% (v:v) BSA). Plate was washed three times with ice cold wash buffer. The filtration plates were dried at 37° C. overnight. 50 μL of scintillation cocktail was added to each well. Radioactivity was determined using MicroBetaTriluxmicroplate scintillation counter.
row,IC50,SMILES
1,240 nM,CC(=O)N(CCCc1ccccc1)[C@H]1C[C@@H](C(=O)O)N(C(=O)C(c2ccccc2)c2ccccc2)C1
2,384 nM,CN(CCc1ccccc1)[C@H]1C[C@@H](C(=O)O)N(C(=O)C(c2ccccc2)c2ccccc2)C1

# Second part, the molecule before the results:
row,SMILES,IC50
1,O=C(O)[C@@H]1C[C@H](NC(=O)N(c2ccccc2)c2ccccc2)CN1C(=O)C(c1ccccc1)c1ccccc1,3360 nM
2,O=C(C(c1ccccc1)c1ccccc1)N1C[C@@H](OCCCc2ccccc2)[C@H]1CO,650 nM
3,CN(CCCc1ccc(F)cc1)[C@H]1C[C@@H](c2nnn[nH]2)N(C(=O)C(c2ccccc2)c2ccccc2)C1,3.52 nM
4,O=C(C(c1ccccc1)c1ccccc1)N1C[C@H](OCCCc2ccccc2)[C@H]1CO,2050 nM

# — ChEMBL document CHEMBL5726139, “Heterocyclic compounds and methods of their use” (2017)
